Laboratory results: publication PMC4805609, “Estrogenic Effects of Several BPA Analogs in the Developing Zebrafish Brain” (Frontiers in Neuroscience, 2016)
pIC50: −log10 of the molar value. Read-outs that look alike come from different tables or passages of the source.

Assays:
zfERα [1] = biological target: T1, zfERα (Danio rerio, UniProt P57717); assay: cyp19a1b-luciferase reporter gene assay in U251-MG glial cells transfected with zfERα; format: cell-based, zebrafish; design: containing the coding regions of each zebrafish estrogen receptor cDNA; expressed in transfected cells; host or cells: human U251-MG glial cells (ER-negative); conditions: for cyp19a1b-luciferase reporter gene induction: 10–6 M, 24 h, U251-MG cells with ERα, vs DMSO
T1 sequence (P57717 1-569): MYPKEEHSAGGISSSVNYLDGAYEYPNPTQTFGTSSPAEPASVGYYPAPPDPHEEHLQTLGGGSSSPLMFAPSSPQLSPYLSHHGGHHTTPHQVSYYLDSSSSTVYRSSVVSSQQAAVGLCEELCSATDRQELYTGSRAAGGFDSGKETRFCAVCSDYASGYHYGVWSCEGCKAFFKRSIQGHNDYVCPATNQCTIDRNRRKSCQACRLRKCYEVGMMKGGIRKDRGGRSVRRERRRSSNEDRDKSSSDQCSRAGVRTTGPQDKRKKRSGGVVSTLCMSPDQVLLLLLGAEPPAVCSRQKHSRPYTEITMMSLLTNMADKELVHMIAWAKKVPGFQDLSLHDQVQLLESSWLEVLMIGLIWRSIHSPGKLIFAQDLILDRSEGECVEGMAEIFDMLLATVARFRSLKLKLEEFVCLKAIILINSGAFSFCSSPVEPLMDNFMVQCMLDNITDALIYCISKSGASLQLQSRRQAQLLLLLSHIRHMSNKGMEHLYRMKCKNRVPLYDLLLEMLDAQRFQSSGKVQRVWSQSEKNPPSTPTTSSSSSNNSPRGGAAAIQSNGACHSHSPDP
Method: (§1) The medium was also supplemented with 20 U/mL penicillin, 20 μg/mL streptomycin, and 50 ng/mL amphotericin B (Gibco). For transfections, cells were plated in 24-well plates at a density of 25,000 cells/ml in the same medium, except the fetal calf serum was charcoal-treated and used at a concentration of 2.5%. Cells were transfected with 25 ng/well either the vector expression containing or not the zfERα, zfERβ1, zfERβ2 coding region and cytomegalovirus [CMV]−β-Galactosidase, and 150 ng/well of the cyp19a1b-Luciferase reporter plasmid, using JetPEI as a transfection reagent (Polyplus Transfection, Illkirch, France). […] Luciferase activity was measured 24 h later (Luciferase assay system, Promega, Madison, WI, USA). β-Galactosidase activity was used to normalize transfection efficiency. Chemicals were tested in at least 3 independent experiments and each experiment was performed in triplicate.

zfERα [2] = biological target: T1, zfERα; assay: competitive binding assay vs [3H]-E2 on in vitro translated zfERα; design: containing the coding regions of each zebrafish estrogen receptor cDNA; species or system zebrafish; conditions: for receptor-binding activity: competition with [3H]-E2, ERα, Figure 8A; for pIC50: displacement of 10^−9 M [3H]-E2, ERα
Method: We also performed a competitive binding assay to test the binding properties of our compounds of interest with the three zfERs (Blair et al., [2000]). The three zebrafish estrogen receptor proteins were synthesized using the Topo-pcDNA3 expression vector containing the coding region of zfERα, zfERβ1, and zfERβ2 (Menuet et al., [2002]). The TNT Quick Coupled Transcription/Translation Systems kit (Promega, Madison, WI, USA) was used for synthesis of zfER proteins by adding 1 μg of each ER expression vector and according to the manufacturer's protocol. […] IC50 were calculated using GraphPad Prism, version 6.07.

cyp19a1b gene = assay: RT-qPCR of cyp19a1b transcripts in wild type 7-dpf larva brains
Method: (§2) For subsequent RT-qPCR and in situ hybridization analysis with wild type zebrafish, groups of 80 embryos (for each condition) were placed after 1 day post-fertilization (1-dpf) in a large glass flask containing 100 ml of embryonic medium (Mouriec et al., [2009b]). […] The embryos were held in the exposure flasks until 7-dpf larva stage. […] Embryos were maintained in the exposure dishes until 4-dpf larva stage. During the treatment period, 100% of the exposure medium was renewed every 24 h (for both wild type and transgenic zebrafish).
Tissue was sonicated (10 s, 3 times) in 250 μL Trizol Reagent (Invitrogen) and RNA extractions were carried out according to the manufacturer's protocol. Reverse transcription was carried out by incubating 2μg total RNA with 1μg of random primer oligonucleotides, 2.5ṁM dNTPs, and 50 U MMLV-RT (Promega) in the appropriate buffer for 10 min at 65°C and 60 min at 37°C. Quantitative Polymerase chain reaction (qPCR) experiments were performed in an iCycler thermocycler coupled to the MyiQ detector (Bio-Rad. Hercules, CA, USA) using iQ SYBR-Green Supermix (Bio-Rad) according to the manufacturer's protocol. The following primers were used: ef1 (fw) 5′-[…]-3′; ef1 (rev) 5′-[…]-3′; cyp19a1b (AroB; fw) 5′-[…] For each condition, the RT-PCR experiment was run in triplicates. Expression levels of ef1 mRNA were used to normalize cyp19a1b expression levels. Melting curve and PCR efficiency analyses were performed to confirm correct amplification. For quantification of PCR results, the threshold cycle (Ct) was determined for each reaction. Ct values for each gene of interest were normalized with the housekeeping gene ef1, using the ΔΔCt method. Normalized values were used to calculate the degree of induction or inhibition expressed as a “fold difference” compared to normalized control values.

cyp19a1b transcripts = assay: cyp19a1b in situ hybridization on 7-dpf brain sections; format: in vivo, zebrafish; conditions: 7-dpf larvae; for distribution of cyp19a1b transcripts in the whole brain: transverse sections
Method: as §2
Larvae used for in situ hybridization experiments originated from the same exposition groups than RT-qPCR experiments. After exposure to the different conditions, 10 wild type 7-dpf larvae (for each treatment) were fixed overnight at 4°C in 4% paraformaldehyde, before embedding in parrafin. Serial thin transverse sections ([…]) were placed on cryofrost slides and subjected to in situ hybridization experiments. Sense and antisense digoxigenin-labeled riboprobes for the cyp19a1b gene were transcribed using the Digoxigenin RNA labeling kit in accordance with the manufacturer's instructions (Roche, Mannheim, Germany) and as previously described (Menuet et al., [2005]). The brain sections were processed for in situ hybridization using stringent conditions as previously published (D'Amico et al., [2011], [2013]). After NBT/BCIP revelation, sections were counterstained with DAPI, and mounted in a drop of vectashield (Vector Laboratories). All sections were photographed with an Olympus PROVIS AX70 microscope with a digital camera (Olympus SP71), or a Nikon multizoom AZ100 macroscope with a DS-Ri1 color camera.

zebrafish embryos/larvae = assay: Mortality, toxicity, teratogenicity and motility of exposed embryos/larvae; format: in vivo; conditions: EE2 1 nM, BPA 0.1, 1, 10 μM; until 7-days larval stage; data not shown
cyp19a1b promoter = assay: EASZY assay: GFP fluorescence in brain of live cyp19a1b-GFP transgenic 4-dpf larvae; format: in vivo, zebrafish; conditions: 4-dpf cyp19a1b-GFP larvae, exposure 2 hpf to 4 dpf
Method: Quantification of fluorescence in transgenic cyp19a1b-GFP zebrafish larva brain was performed according to Brion et al. ([2012]). In this assay, estrogenic activity is detected in living 4 days-old larvae (treated or not with an estrogen mimic compound) from the observation of the reporter gene fluorescence in the radial glial cells. […] All photographs were taken using the same parameters: only the head was photographed under a X10 objective, with a 134 ms exposure time and maximal intensity. Photographs were analyzed using the Axiovision Imaging software and fluorescence quantification was performed using the ImageJ software (http://rsbweb.nih.gov/ij/). For each picture, the integrated density was measured, i.e., the sum of the gray-values of all the pixels within the region of interest. A gray-value of 290 was defined as background value. For each micrograph the fluorescence fold induction of fluorescence was calculated comparing the integrated pixel density with the average fluorescence induction obtained in the control group.

zfERβ1 = biological target: T2, zfERβ1 (Danio rerio, UniProt Q5PR29); assay: cyp19a1b-luciferase reporter gene assay in U251-MG glial cells transfected with zfERβ1; format: cell-based, zebrafish; conditions: 10–9 M, 24 h, U251-MG cells with ERβ1, vs DMSO
T2 sequence (Q5PR29 1-592): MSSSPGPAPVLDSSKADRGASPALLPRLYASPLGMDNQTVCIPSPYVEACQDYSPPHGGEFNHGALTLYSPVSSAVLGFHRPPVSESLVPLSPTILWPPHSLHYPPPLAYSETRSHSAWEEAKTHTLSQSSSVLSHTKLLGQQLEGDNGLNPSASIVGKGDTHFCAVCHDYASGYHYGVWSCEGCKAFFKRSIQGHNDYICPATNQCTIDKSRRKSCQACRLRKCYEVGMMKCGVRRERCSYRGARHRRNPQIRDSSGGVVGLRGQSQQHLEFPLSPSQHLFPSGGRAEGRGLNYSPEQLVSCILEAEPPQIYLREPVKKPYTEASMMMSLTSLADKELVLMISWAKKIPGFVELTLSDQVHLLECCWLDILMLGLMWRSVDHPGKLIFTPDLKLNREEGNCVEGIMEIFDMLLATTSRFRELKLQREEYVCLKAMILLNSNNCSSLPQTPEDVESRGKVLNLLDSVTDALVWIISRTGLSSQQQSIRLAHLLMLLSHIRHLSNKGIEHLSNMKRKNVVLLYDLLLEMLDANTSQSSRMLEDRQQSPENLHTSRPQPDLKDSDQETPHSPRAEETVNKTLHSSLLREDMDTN
Description: The zfER-α, zfER-β1, and zfER-β2 expression vectors correspond to Topo-pcDNA3 expression vector (Invitrogen, San Diego, CA, USA), containing the coding regions of each zebrafish estrogen receptor cDNA as previously described (Menuet et al., [2002]). The cyp19a1b-Luciferase plasmid consists of 500 bp of the proximal promoter region of zebrafish cyp19a1b gene, containing an ERE, coupled to the luciferase reporter gene (Menuet et al., [2002]).
as §1, with “Human U251-MG glial cells were maintained in phenol red-free Dulbecco's Modified Eagle's Medium (DMEM; Life Technologies, Saint Aubin, France) supplemented with 10% fetal calf serum (Biowest, Nuaillé, France), 4 mM L-Glutamine (Gibco, Carlsbad, CA, USA) and 1 mM Na-Pyruvate (Life Technologies, Saint Aubin, France) and kept at 37°C and 5% CO2 atmosphere (Le Page et al., [2006]). The” for “The”

zfERβ2 = zfERβ2 (Danio rerio, UniProt Q7ZU32); assay: cyp19a1b-luciferase reporter gene assay in U251-MG glial cells transfected with zfERβ2; format: cell-based, zebrafish; conditions: 10–9 M, 24 h, U251-MG cells with ERβ2, vs DMSO
Method: as §1

Sequence of zfERβ2 (Q7ZU32 1-553): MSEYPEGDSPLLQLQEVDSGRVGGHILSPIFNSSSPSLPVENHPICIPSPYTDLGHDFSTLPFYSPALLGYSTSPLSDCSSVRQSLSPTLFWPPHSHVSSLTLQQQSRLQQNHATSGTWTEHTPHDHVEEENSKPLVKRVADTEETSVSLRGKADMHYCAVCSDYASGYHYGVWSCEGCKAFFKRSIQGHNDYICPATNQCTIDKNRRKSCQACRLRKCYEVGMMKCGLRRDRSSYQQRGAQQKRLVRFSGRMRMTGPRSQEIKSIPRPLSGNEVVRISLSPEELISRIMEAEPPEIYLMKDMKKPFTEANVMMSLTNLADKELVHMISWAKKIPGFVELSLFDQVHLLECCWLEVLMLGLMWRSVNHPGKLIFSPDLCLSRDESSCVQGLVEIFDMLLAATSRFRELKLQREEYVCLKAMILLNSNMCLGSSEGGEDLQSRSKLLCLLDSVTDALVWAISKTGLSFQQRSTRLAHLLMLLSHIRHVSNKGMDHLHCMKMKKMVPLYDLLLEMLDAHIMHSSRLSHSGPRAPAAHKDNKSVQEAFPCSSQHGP

CC(C)(c1ccc(O)cc1)c1ccc(O)cc1 [BPA, 2,2-bis(4-hydroxyphenyl)propane, reference compound]
cyp19a1b-luciferase reporter gene induction (zfERα [1]): significant stimulation
receptor-binding activity (zfERα [2]): bind in vitro to ERα receptor
pIC50 (zfERα [2]): 5.55
fold induction at 0.1 µM (cyp19a1b gene; Danio rerio, read-out: cyp19a1b gene expression, fold induction relative to DMSO, 0.1 μM, 7-dpf larvae brains, Figure 1A): 9
fold induction at 1 µM (cyp19a1b gene; Danio rerio, read-out: cyp19a1b gene expression, fold induction relative to DMSO, 1 μM, 7-dpf larvae brains, Figure 1A): ~20
fold induction at 1 µM (cyp19a1b gene; Danio rerio, read-out: cyp19a1b gene expression, fold induction relative to DMSO, 1 μM, 7-dpf larvae brains, six independent exposures, Figure 1B): ~36
fold induction at 10 µM (cyp19a1b gene; Danio rerio, read-out: cyp19a1b gene expression, fold induction relative to DMSO, 10 μM, 7-dpf larvae brains, Figure 1A): 12
cyp19a1b transcripts in the nucleus recessus posterioris (nrp), caudal hypothalamus (cyp19a1b transcripts; 1 μM): strong levels of cyp19a1b transcripts
distribution of cyp19a1b transcripts in the whole brain (cyp19a1b transcripts; 1 μM): strong presence of cyp19a1b transcripts in virtually identical regions than EE2-treated larvae
toxic or teratogenic effect (zebrafish embryos/larvae): did not caused notable toxicological effects
fold induction at 1 µM (cyp19a1b promoter; Danio rerio, read-out: GFP fluorescence, fold induction above DMSO control): 16

Oc1ccc(Cc2ccc(O)cc2)cc1 [BPF, 4,4′-dihydroxydiphenyl methane]
cyp19a1b-luciferase reporter gene induction (zfERα [1]): increased luciferase activity in ERα cells, but the stimulation did not reach statistical significance
receptor-binding activity (zfERα [2]): bind in vitro to ERα receptor
pIC50 (zfERα [2]): 4.97
cyp19a1b gene expression, fold induction relative to DMSO (cyp19a1b gene; 1 μM, 7-dpf larvae brains, six independent exposures, Figure 1B): 20 fold
distribution of cyp19a1b transcripts in the whole brain (cyp19a1b transcripts; 1 μM): identical to EE2- and BPA-treated animals
GFP fluorescence, fold induction above DMSO control (cyp19a1b promoter; 1 μM): 13 fold

C#C[C@]1(O)CC[C@H]2[C@@H]3CCc4cc(O)ccc4[C@H]3CC[C@@]21C [EE2, 17α-ethinylestradiol, reference compound]
distribution of cyp19a1b transcripts in the whole brain (cyp19a1b transcripts; EE2 1 nM): massive over-expression of the cyp19a1b transcripts
cyp19a1b-luciferase reporter gene induction (zfERβ1): strong induction
cyp19a1b-luciferase reporter gene induction (zfERβ2): strong induction

C[C@]12CC[C@@H]3c4ccc(O)cc4C[C@@H](CCCCCCCCC[S+]([O-])CCCC(F)(F)C(F)(F)F)[C@H]3[C@@H]1CC[C@@H]2O (stereo partly drawn) [ICI, reference compound]
effect on BPA, BPF and BPAF stimulations of cyp19a1b-luciferase (zfERα [1]; simultaneous treatment, ERα-expressing U251-MG cells, Figure 7B): completely abolished
